This experiment has as its target T1, Xylosyl- and glucuronyltransferase LARGE1 (Homo sapiens, UniProt O95461).
T1 sequence (O95461 whole entry): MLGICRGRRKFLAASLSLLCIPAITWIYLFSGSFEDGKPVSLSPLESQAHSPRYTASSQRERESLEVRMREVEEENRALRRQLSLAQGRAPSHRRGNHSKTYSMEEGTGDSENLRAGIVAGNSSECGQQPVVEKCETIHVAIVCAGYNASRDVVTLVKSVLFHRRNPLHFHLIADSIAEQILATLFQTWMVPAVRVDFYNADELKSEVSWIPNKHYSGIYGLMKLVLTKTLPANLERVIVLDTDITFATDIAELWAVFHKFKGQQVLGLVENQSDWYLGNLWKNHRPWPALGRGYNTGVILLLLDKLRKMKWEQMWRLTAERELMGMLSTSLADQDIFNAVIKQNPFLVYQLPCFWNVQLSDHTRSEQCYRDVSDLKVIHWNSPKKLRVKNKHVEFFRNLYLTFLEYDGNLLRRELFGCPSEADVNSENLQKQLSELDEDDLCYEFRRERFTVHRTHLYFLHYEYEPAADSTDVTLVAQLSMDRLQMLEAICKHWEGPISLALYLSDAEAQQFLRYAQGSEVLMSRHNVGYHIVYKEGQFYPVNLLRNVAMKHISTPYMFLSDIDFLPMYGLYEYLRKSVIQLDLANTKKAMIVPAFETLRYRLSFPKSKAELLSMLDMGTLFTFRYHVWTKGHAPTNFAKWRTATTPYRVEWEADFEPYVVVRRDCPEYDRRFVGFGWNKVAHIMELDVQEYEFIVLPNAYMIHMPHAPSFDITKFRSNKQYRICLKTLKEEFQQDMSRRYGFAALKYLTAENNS

Each structure is given as a SMILES string. pEC50: −log10 of the molar value.

As for `Oc1c(Cl)c(N=Cc2ccco2)c(O)c2ccccc12` [2-chloranyl-3-(furan-2-ylmethylamino)naphthalene-1,4-dione], the pEC50 (usually −log10 of the EC50, conventionally taken in molar units) was 5.30.
